Results from the supplement of paper PMC13380429.

What was measured:
Conditions in all cases: 72 h
Caco-2 [1] = assay: relative viability EC50 (midpoint between 100% and the lowest measured viability); higher = less toxic
Vero E6 [2] = assay: as above
U2OS [3] = assay: as above
HepG2 [4] = assay: as above
Caco-2 [5] = assay: drug sensitivity score (DSS) for viability; higher = more toxic; extreme values may be limits of the assay
Vero E6 [6] = assay: as above
U2OS [7] = assay: as above
HepG2 [8] = assay: as above
Caco-2 [9] = assay: cell viability relative to DMSO; higher = less toxic
Vero E6 [10] = assay: as above
U2OS [11] = assay: as above
HepG2 [12] = assay: as above
Calu-3 [13] = assay: drug sensitivity score (DSS) for viability; higher = more toxic; extreme values may be limits of the assay
Calu-3 [14] = assay: cell viability relative to DMSO; higher = less toxic

Row | SMILES | relative viability EC50 (Caco-2 [1]) | relative viability EC50 (Vero E6 [2]) | relative viability EC50 (U2OS [3]) | relative viability EC50 (HepG2 [4]) | drug sensitivity score (Caco-2 [5]) | drug sensitivity score (Vero E6 [6]) | drug sensitivity score (U2OS [7]) | drug sensitivity score (HepG2 [8]) | cell viability (Caco-2 [9]; 1 nM) | cell viability (Caco-2 [9]; 10 nM) | cell viability (Caco-2 [9]; 100 nM) | cell viability (Caco-2 [9]; 1000 nM) | cell viability (Caco-2 [9]; 10000 nM) | cell viability (Vero E6 [10]; 1 nM) | cell viability (Vero E6 [10]; 10 nM) | cell viability (Vero E6 [10]; 100 nM) | cell viability (Vero E6 [10]; 1000 nM) | cell viability (Vero E6 [10]; 10000 nM) | cell viability (U2OS [11]; 1 nM) | cell viability (U2OS [11]; 10 nM) | cell viability (U2OS [11]; 100 nM) | cell viability (U2OS [11]; 1000 nM) | cell viability (U2OS [11]; 10000 nM) | cell viability (HepG2 [12]; 1 nM) | cell viability (HepG2 [12]; 10 nM) | cell viability (HepG2 [12]; 100 nM) | cell viability (HepG2 [12]; 1000 nM) | cell viability (HepG2 [12]; 10000 nM) | drug sensitivity score (Calu-3 [13]) | cell viability (Calu-3 [14]; 1 nM) | cell viability (Calu-3 [14]; 10 nM) | cell viability (Calu-3 [14]; 100 nM) | cell viability (Calu-3 [14]; 1000 nM) | cell viability (Calu-3 [14]; 10000 nM)
1 | CC(C)(C)CC(=O)Nc1c(F)cc(C(=O)/N=c2\sccn2COP(=O)(O)O)cc1F | > 10 µM | > 10 µM | > 10 µM | > 10 µM | 0 | 0 | 0 | 0 | 97.9% | 109% | 99.4% | 104% | 92.3% | 107% | 104% | 102% | 96.5% | 94.3% | 95.8% | 101% | 97% | 98.2% | 95.5% | 101% | 114% | 94.8% | 98.9% | 96.9% | – | – | – | – | – | –
2 | Nc1nccc(-c2c(-c3ccc(F)cc3)ncn2C2CCCCC2)n1 | – | > 10 µM | > 10 µM | 2.08 µM | 2.3 | 0.4 | 0.6 | 4.3 | 102% | 96.2% | 97.3% | 85.2% | 74.8% | 105% | 103% | 99.2% | 108% | 79.8% | 98.2% | 102% | 103% | 95.5% | 85% | 97.8% | 99.7% | 100% | 92.4% | 43.3% | 3.7 | 91.1% | 100% | 105% | 87% | 62.1%
3 | Nc1ncnc2c1c(-c1ccc(Oc3ccccc3)cc1)nn2C1CCCC1 | – | > 10 µM | > 10 µM | > 10 µM | 2.3 | 0.3 | 1.1 | 1 | 109% | 96.7% | 95.7% | 93.6% | 70.1% | 94.2% | 100% | 97.1% | 90.8% | 87.1% | 102% | 97.3% | 101% | 97.4% | 78.7% | 89.7% | 101% | 92% | 88.3% | 82% | 3 | 105% | 104% | 99% | 95.8% | 54.5%
4 | Oc1cc2c(cc1O)[C@H]1c3ccccc3CN[C@@H]1CC2 (racemic) [dihydrexidine] | > 10 µM | > 10 µM | > 10 µM | > 10 µM | 0 | 0 | 0 | 0 | 102% | 97.7% | 99.6% | 92.6% | 97.9% | 96.7% | 96.7% | 96.8% | 97.6% | 104% | 101% | 93.2% | 104% | 96.9% | 104% | 83.4% | 95.8% | 90.9% | 93.2% | 82.1% | – | – | – | – | – | –
5 | CCC(=O)OCC(=O)[C@@]1(OC(=O)CC)[C@@H](C)C[C@H]2[C@@H]3CCC4=CC(=O)C=C[C@]4(C)[C@@]3(F)[C@@H](O)C[C@@]21C [BETAMETHASONE 17,21-DIPROPIONATE] | > 10 µM | > 10 µM | > 10 µM | > 10 µM | 0 | 0 | 0 | 0 | 99% | 97.8% | 99.9% | 111% | 98.2% | 103% | 95.2% | 91.2% | 92.9% | 99.1% | 91.6% | 96.8% | 93.7% | 97% | 102% | 103% | 88.3% | 101% | 95.5% | 110% | – | – | – | – | – | –
6 | COC(=O)c1cc2c(C(F)(F)F)cc(-c3ccccc3)cc2n1O [NHI-2] | > 10 µM | > 10 µM | > 10 µM | > 10 µM | 0 | 0 | 0 | 0 | 106% | 90.2% | 102% | 90.1% | 91.2% | 104% | 104% | 98.8% | 101% | 97.5% | 103% | 98.1% | 102% | 97.1% | 101% | 95.1% | 103% | 110% | 98.2% | 99.3% | – | – | – | – | – | –
7 | COc1cc(N2CCC(N3CCN(C)CC3)CC2)ccc1Nc1ncc(Cl)c(Nc2ccccc2S(=O)(=O)C(C)C)n1 [NVP-TAE684] | – | 1.81 µM | 2.22 µM | 0.926 µM | 4.3 | 4.9 | 5.7 | 8.1 | 103% | 104% | 101% | 87.4% | 53.5% | 100% | 97.2% | 93.5% | 89.5% | 42.6% | 106% | 97.9% | 102% | 91.2% | 22.9% | 91.7% | 96.1% | 103% | 63.9% | 34.2% | 3.4 | 97.2% | 94.5% | 90.2% | 86.6% | 61.5%
